We go through six molecules from article PMC6468543, “Rational Design, Synthesis and Preliminary Evaluation of Novel Fusarinine C-Based Chelators for Radiolabeling with Zirconium-89” (Biomolecules, 2019).

Data set [1] is described as follows: Stability assay in human serum. To be noted: 37 °C, incubation time 7 days. It is filed as in vitro ADME. The method, then:
(§1) Determination of the stability of [^89Zr]Zr-DFO, [^89Zr]Zr-TAFC, [^89Zr]Zr-FSC(succ)2AA and [^89Zr]Zr-FSC(succ)3 was carried out by incubating the radioligands in PBS, a 1000-fold molar excess of ethylenediaminetetraacetic acid (EDTA) solution (radioligand vs. […] Then, the precipitate was washed three times using CH3CN before analysis.

Data set [2] in a line: Protein binding assay in fresh human serum (size exclusion spin column). As to conditions: 37 °C, incubation time 7 days. Format: in vitro ADME. As for the experimental part: The protein binding property was evaluated by incubating [^89Zr]Zr-FSC(succ)2AA or [^89Zr]Zr-FSC(succ)3 for seven days at 37 °C in fresh human serum. Subsequently, 30 µL of the solution was passed through a size exclusion spin column (MicroSpinG-50 column, GE Healthcare, Buckinghamshire, UK) via centrifugation at 2000 rcf for 2 min. Protein binding of the complexes in triplicate was determined by measuring the activity on the column (non-protein bound) and the activity in the eluate (protein bound) in the gamma counter.

Data set [3] is described as follows: Distribution coefficient (logD), octanol/PBS. It is filed as physicochemical. To be noted: n = 5. As for the experimental part: A volume of 500 µL PBS including 0.5 MBq radioligand ([^89Zr]Zr-FSC(succ)2AA or [^89Zr]Zr-FSC(succ)3) was combined with 500 µL octanol. The mixture was vortexed for 15 min, and centrifuged for 2 min at 2000 rcf. Subsequently, 50 µL aliquots of the aqueous and the octanol layer were collected, measured in a 2480 Wizard^2 Automatic Gamma Counter (Perkin Elmer, Vienna, Austria), and distribution coefficient (logD) values were calculated using Excel 2013 (n = 5) (Redmond, WA, USA).

Data set [4] can be described thus: Acid dissociation study in 1000-fold molar excess of EDTA solution. Format: physicochemical. As for the experimental part:
as §1

The nature of data set [5]: Biodistribution study in BALB/c mice. To be noted: i.v., 6 h p.i., n = 4. It is filed as in vivo. As for the experimental part: For the evaluation of biodistribution, four female BALB/c mice (Charles River Laboratories, Sulzfeld, Germany) were intravenously injected with [^89Zr]Zr-FSC(succ)3 (1.5 MBq/mouse, 4.8 µg precursor) or [^89Zr]Zr-TAFC (1.5 MBq/mouse, 4 µg) into the tail vein and sacrificed by cervical dislocation at 6 h post injection (p.i.). Organs (spleen, pancreas, stomach, intestine, kidney, liver, heart, and lung), blood, muscle tissue, and bone were dissected, weighed and then measured in the gamma counter to calculate the percentage of injected dose per gram of tissue (% ID/g). Statistical analysis was performed using an independent two-population t-test (significance level p = 0.05) and Origin 6.1 software (Northampton, MA, USA).

The nature of data set [6]: MicroPET/CT imaging, image-based quantitation of bone uptake (knee). It is filed as in vivo, BALB/c mice. As to conditions: BALB/c mouse, i.v., 24 h p.i., mean of left and right knees, n = 1. The method, then:
Micro-Positron Emission Tomography/computer tomography (MicroPET/CT) imaging studies were carried out using an Inveon microPET/CT scanner (Siemens Preclinical Solutions, Knoxville, TN, USA). Healthy female BALB/c mice were injected intravenously with 5 MBq of either [^89Zr]Zr-FSC(succ)3 (16 µg, n = 1) or [^89Zr]Zr-TAFC (13 µg, n = 1). MicroPET/CT images were acquired under general anesthesia (isoflurane/O2) for 20 min. Imaging data were recorded via static scans at 80 min and 24 h p.i. The microPET/CT scans were reconstructed and merged with OSEM3D-SPMAP (PET, matrix size 256 × 256) and Feldkamp (CT, Shepp Logan filter). For evaluation of bone uptake, image-based quantitation was carried out by selecting volumes of interest around each knee region and % ID/cm^3 were calculated for both time points (VivoQuant image analysis software, Invicro LLC, Boston, MA, USA) and expressed as mean values of left and right knees to compare both compounds.

Data set [7] in a line: Transchelation study: 89Zr-FSC derivative complexes with 1000-fold molar excess of DFO. It is filed as physicochemical. To be noted: RT, after 7 days. The method, then:
(§2) [^89Zr]Zr-DFO (50 µL) was mixed with a 1000-fold molar excess of either FSC(succ)2AA or FSC(succ)3 and [^89Zr]Zr-TAFC (or [^89Zr]Zr-FSC(succ)2AA, [^89Zr]Zr-FSC(succ)3) (50 µL each) was mixed with a 1000-fold molar excess of DFO and incubated for seven days at RT. At selected time points, aliquots of the solutions were analyzed in triplicate directly via analytical RP-HPLC. The transchelation was determined by the ratio of [^89Zr]Zr-DFO and [^89Zr]Zr-FSC derivatives.

A short description of data set [8]: Solubility in water. As to conditions: unlabeled chelator. Format: physicochemical.
On the set-up of data set [9]: method as in PMID 25941834. To be noted: previously reported data; cited from earlier work.
Details of data set [10]: method as in PMID 25941834. As to conditions: human serum, incubation time 7 days, previously reported data; cited from earlier work.
Details of data set [11]: method as in PMID 25941834. To be noted: incubation time 7 days, previously reported data; cited from earlier work.
Data set [12] can be described thus: Transchelation study: [89Zr]Zr-DFO with 1000-fold molar excess of FSC(succ)2AA or FSC(succ)3. To be noted: 1000-fold molar excess of FSC(succ)2AA or FSC(succ)3, RT, within 1 h. It is filed as physicochemical. As for the experimental part: as §2

As a reminder, the Log D is the decadic logarithm of the distribution of all forms, ionised or not, between an organic phase and buffer at a given pH.

Structures are written as SMILES. Entries after “also recorded” stand apart in the source; their conditions may differ. Like-named read-outs stand apart in the source and are kept apart here.

With `CC1=CC(=O)N([O-])CCCC(NC(=O)CCC(=O)[O-])C(=O)OCCC(C)=CC(=O)N([O-])CCCC(NC(=O)CCC(=O)O)C(=O)OCCC(C)=CC(=O)N([O-])CCCC(NC(=O)CCC(=O)[O-])C(=O)OCC1.[89Zr+4]` (mixture of isomers) [[^89Zr]Zr-FSC(succ)3], the “Stability in Human Serum (%)” value in [1] came out at 99.5%. Besides, the “Protein Binding (%)” value in [2] was determined as 8.3 ± 3.5%. Further, the “Log D” value in data set [3] was −3.5 ± 0.4. In addition, the intact complex in data set [4] (pH 4, day 7, 37 °C) was 87.9%. The intact complex in [4] (pH 6, 37 °C) worked out at 97.8%. Moreover, the resistance to transchelation entry in data set [4] (pH 7, over seven days, 37 °C) is listed as “excellent resistance to transchelation”. In [5], the activity in blood amounted to 0.11 ± 0.08 % ID/g, the activity in bone is listed as 0.24 ± 0.04 % ID/g, the activity in heart stood at 0.28 ± 0.08 % ID/g and the activity in lung is 0.21 ± 0.04 % ID/g. The activity in muscle in data set [5] turned out to be 0.25 ± 0.07 % ID/g. For the same molecule, in data set [6], the “bone uptake in the knee” value was found to be 0.026 % ID/cm^3. The molecule also returned an intact complex in data set [7] of 62.1%.
Take `CC(=O)NC1CCCN(O)C(=O)/C=C(/C)CCOC(=O)C(NC(=O)CCC(=O)O)CCCN(O)C(=O)/C=C(/C)CCOC(=O)C(NC(=O)CCC(=O)O)CCCN(O)C(=O)/C=C(/C)CCOC1=O` (stereo not drawn) [FSC(succ)2AA, Fusarinine C(succ)2AA]: the solubility in water result in data set [8] was “high solubility in water”.
Regarding `CC(=O)NC1CCCN([O-])C(=O)C=C(C)CCOC(=O)C(NC(=O)CCC(=O)[O-])CCCN([O-])C(=O)C=C(C)CCOC(=O)C(NC(=O)CCC(=O)[O-])CCCN([O-])C(=O)C=C(C)CCOC1=O.[89Zr+4]` (mixture of isomers) [[^89Zr]Zr-FSC(succ)2AA], the “Stability in Human Serum (%)” value in data set [1] was determined as 99.4%. For the same molecule, in data set [2], the “Protein Binding (%)” value was determined as 5.9 ± 1.6%. In addition, the “Log D” value in data set [3] was −3.3 ± 0.1. Further, the intact complex in data set [4] (pH 6, 37 °C) came to 76%; in [7], 30.8%. Further, the resistance to transchelation entry in data set [4] (pH 7, over seven days, 37 °C) is recorded as “excellent resistance to transchelation”.
In the case of `CC(=O)NC1CCCN([O-])C(=O)/C=C(/C)CCOC(=O)C(NC(C)=O)CCCN([O-])C(=O)/C=C(/C)CCOC(=O)C(NC(C)=O)CCCN([O-])C(=O)/C=C(/C)CCOC1=O.[89Zr+4]` (stereo not drawn) [[^89Zr]Zr-TAFC, ^89Zr-triacetylfusarinine C, reference compound], the intact complex in data set [4] (pH 4, day 7, 37 °C) came out at 70.3%; in [4] (pH 6, 37 °C), 94.4%; in [7], 39.8%. For the same molecule, the resistance to transchelation result in [4] (pH 7, over seven days, 37 °C) is reported as “excellent resistance to transchelation”. Moreover, the activity in blood in data set [5] is 0.05 ± 0.01 % ID/g. In addition, in [9], the “Log D” value was −2.0 ± 0.0. Besides, in data set [10], the “Protein Binding (%)” value is 6.8 ± 0.5%. Also, the “bone uptake in the knee” value in data set [6] came out at 0.016 % ID/cm^3. Moreover, the “Stability in Human Serum (%)” value in data set [11] is 99.5%.
Consider `C/C1=C/C(=O)N(O)CCCC(NC(=O)CCC(=O)O)C(=O)OCC/C(C)=C\C(=O)N(O)CCCC(NC(=O)CCC(=O)O)C(=O)OCC/C(C)=C\C(=O)N(O)CCCC(NC(=O)CCC(=O)O)C(=O)OCC1` (stereo not drawn) [FSC(succ)3, Fusarinine C (succ)3], for which the solubility in water result in data set [8] was “high solubility in water”.
As to `CC(=O)N([O-])CCCCCNC(=O)CCC(=O)N([O-])CCCCCNC(=O)CCC(=O)N([O-])CCCCCN.[89Zr+4]` [[^89Zr]Zr-DFO, ^89Zr-desferrioxamine B], in data set [4] (pH 4), the “acid dissociation (decomposition)” value is “totally decomposing on day 3”. In data set [4] (pH 7, over seven days, 37 °C), this molecule yielded a transchelation of roughly 60%. Besides, in [9], the “Log D” value is −3.0 ± 0.1. The “Protein Binding (%)” value in [10] was 8.7 ± 1.0%. Also, the “Stability in Human Serum (%)” value in [11] is reported as 99.3%. Besides, the “transchelation of 89Zr from [89Zr]Zr-DFO to FSC(succ)2AA or FSC(succ)3” value in data set [12] is given as “Almost quantitative transchelation; also recorded: total transchelation”.
